{"source": "patent US20260258363A1", "about": "“THERAPY” (PLASTICELL LTD, priority 2023, published 2026)", "origin": "cited, not measured here", "test_system": "bone marrow derived CD34+ cells", "conditions": "pre-treatment of cells in vitro"}
{"smiles": "NCCCNCCS", "note": "[WR1065]", "values": [{"measurement": "enhancement of formation of CFU-GEMM and BFU-E colonies", "value": "≤ 38", "unit": "fold"}]}
